Data published in patent publication US4431804A, “Thiazolylacetamido compounds” (Hoffmann-La Roche Inc., priority 1981, dated 1984).
Counter-ions that a name gives are not always drawn.

Columns and labels:
Toxicity (LD50) = details: in vivo
Description: Toxicity of the trisodium salt of (6R,7R)-7-[(Z)-2-(2-amino-4-[…])-2-[(1-carboxy-1-methylethoxy)imino]acetamido]-3-[[(2,5-dihydro-6-hydroxy-2-methyl-5-oxo-as-triazin-3-yl)thio]methyl]-8-oxo-5-thia-1-azabicyclo[4.2.0]oct-2-ene-2-carboxylic acid: […]

Pseudomonas aeruginosa = assay: in vitro activity against 15 strains of Pseudomonas aeruginosa (minimum inhibitory concentration); format: cell-based
Description: Results (as MIC=minimum inhibitory concentration in μg/ml): […]

Cn1nc(O)c(=O)nc1SCC1=C(C(=O)O)N2C(=O)[C@@H](NC(=O)/C(=N\OC(C)(C)C(=O)O)c3csc(N)n3)[C@H]2SC1 [Example 1, trisodium salt of (6R,7R)-7-[(Z)-2-(2-amino-4-thiazolyl)-2-[(1-carboxy-1-methylethoxy)imino]acetamido]-3-[[(2,5-dihydro-6-hydroxy-2-methyl-5-oxo-as-triazin-3-yl)thio]methyl]-8-oxo-5-thia-1-azabicyclo[4.2.0]oct-2-ene-2-carboxylic acid]
LD50 (Toxicity (LD50); iv): > 1000 mg/kg | LD50 (Toxicity (LD50); po): > 4000 mg/kg | LD50 (Toxicity (LD50); sc): > 4000 mg/kg | MIC (Pseudomonas aeruginosa; P. aeruginosa strain 1, in vitro): 6.3 µg/mL | MIC (Pseudomonas aeruginosa; P. aeruginosa strain 2, in vitro): 1.6 µg/mL | MIC (Pseudomonas aeruginosa; P. aeruginosa strain 3, in vitro): 1.6 µg/mL | MIC (Pseudomonas aeruginosa; P. aeruginosa strain 4, in vitro): 1.6 µg/mL | MIC (Pseudomonas aeruginosa; P. aeruginosa strain 5, in vitro): 1.6 µg/mL | MIC (Pseudomonas aeruginosa; P. aeruginosa strain 6, in vitro): 1.6 µg/mL | MIC (Pseudomonas aeruginosa; P. aeruginosa strain 7, in vitro): 1.6 µg/mL | MIC (Pseudomonas aeruginosa; P. aeruginosa strain 8, in vitro): 25 µg/mL | MIC (Pseudomonas aeruginosa; P. aeruginosa strain 9, in vitro): 3.1 µg/mL | MIC (Pseudomonas aeruginosa; P. aeruginosa strain 10, in vitro): 1.6 µg/mL | MIC (Pseudomonas aeruginosa; P. aeruginosa strain 11, in vitro): 0.8 µg/mL | MIC (Pseudomonas aeruginosa; P. aeruginosa strain 12, in vitro): 1.6 µg/mL | MIC (Pseudomonas aeruginosa; P. aeruginosa strain 13, in vitro): 1.6 µg/mL | MIC (Pseudomonas aeruginosa; P. aeruginosa strain 14, in vitro): 1.6 µg/mL | MIC (Pseudomonas aeruginosa; P. aeruginosa strain 15, in vitro): 1.6 µg/mL
